In patent US20240335432A1, “THERAPEUTIC COMPOUND FOR NEURONAL CEROID LIPOFUSCINOSIS” (JCR PHARMACEUTICALS CO., LTD., priority 2021, published 2024):

Legend:
CLN2 cells = experiment: Observation of autofluorescent material (lipofuscin) in CLN2 patient-derived cells by fluorescence microscopy; type: cell-based, human; settings: CLN2 cells of 7 donors, 0.1, 1, 10 μM soraprazan, particularly at 10 μM, 10 days; FIGS. 1-8
Procedure: (§1) Ceroid lipofuscinosis type 2 patient-derived fibroblasts (CLN2 cells, 7 donors: GM09668, GM09669, GM09404, GM10570, GM10672, GM16485, GM16486, Coriell Institute) and normal human dermal fibroblasts (NHDF cells, Cat.No.C-12300, PromoCell GmbH) were cultured in MEM (10370088, Gibco) containing 15% FBS (HyClone) and 1×GlutaMAX™ I (Gibco) (hereafter referred to as MEM). Each cell was diluted to 0.5×10^5 cells/mL with MEM and 15 mL of each cell suspension was seeded in T75 flask (3123-075, IWAKI Inc.). Cells were cultured under 37° C., 5% CO2 conditions.
(§2) Soraprazan (Symeres) was dissolved in Dimethyl sulfoxide (DMSO) to prepare soraprazan stock solution with concentrations of 1, 10, and 100 mM. Each soraprazan stock solution was diluted 1/100 concentration with MEM to prepare media with final concentrations of 0.1, 1, and 10 μM of soraprazan (0.0367, 0.367, and 3.67 μg/mL, respectively). In addition, DMSO was diluted to 1/100 concentration with MEM, which was used as a negative control (0 μM soraprazan). Hereinafter the prepared media herein were referred to as soraprazan-containing media collectively.
Each of the CLN2 cells and the NHDF cells cultured in Example 2-1 was washed twice with Dulbecco's Phosphate-Buffered Saline (DPBS, Gibco) and detached from the flask using 1 mL of 0.25% Trypsin-EDTA (Gibco). […]

[1] = test system: PPT1 knockout (KO) HEK293T cells or PPT1 KO CHO cells; experiment: Lipofuscin fluorescence emission measurement in pathological model cells; type: cell-based; settings: final soraprazan concentrations 100 μM-10 nM, versus 100% DMSO added
Procedure: Using mammalian cells in which a causative gene of neuronal ceroid lipofuscinosis has been knocked out as pathological model cells, a test can be performed in which an effect of removing lipofuscin accumulated in the cells by soraprazan is evaluated. For example, using PPT1 knockout (KO) HEK293T cells or PPT1 KO CHO cells, which are pathological model cells of neuronal ceroid lipofuscinosis type 1 (CLN1), a test can be performed in which an effect of removing lipofuscin accumulated in the cells by soraprazan is evaluated. Acquisition of a PPT1 KO cell line can be achieved using a conventionally known method.
Soraprazan is dissolved in dimethyl sulfoxide (DMSO) to a concentration of 10 mM. […]
Relative amounts of lipofuscin accumulated in cells can be measured by observing green autofluorescence emitted from the cells using a fluorescence microscope as described below. […] Then, under a fluorescence microscope, for example, excitation light with wavelength of 485 nm is irradiated to the cells and strength of emitted light from the cells with wavelength of 521 nm is measured. As a fluorescence microscope, for example, EVOS FLoid Imaging System (Thermo Fisher Scientific) can be used, and in this case, wavelengths of excitation light and observation light can be respectively set to 482 nm and 532 nm. […]

TPP1 knockout (KO) mice = experiment: Administration test using pathological model animals, fluorescence intensities of tissues; type: in vivo, mouse; settings: oral or intravenous soraprazan versus negative control group
Procedure: A test can be performed in which an effect of soraprazan on removing lipofuscin accumulated in animal tissues by soraprazan is evaluated using mammals in which a causative gene of neuronal ceroid lipofuscinosis has been knocked out as pathological model animals. For example, a test can be performed in which an effect of soraprazan on removing lipofuscin accumulated in mouse tissues by soraprazan is evaluated using TPP1 knockout (KO) mice, which are neuronal ceroid lipofuscinosis type 2 (CLN2) pathological model cells. Generation of the TPP1 KO mice can be performed using a conventionally known method. […]
After a certain time period, for example 0.25, 0.5, 1, 2, 4, 6, 8, or 24 hours after the last administration of a chronic treatment between one week and 12 months, all TPP1 KO mice are anesthetized with isoflurane and perfused with saline from the left ventricle for 4-5 minutes for blood removal. After that, tissues (brain, heart, lungs, liver, spleen, kidneys, quadriceps, thymus, thoracic vertebrae, femur) and peripheral blood, of which fluorescence intensities are to be measured, are collected, and are stored in physiological saline to prevent drying. Fluorescence intensity measurement of lipofuscin is performed using an appropriate fluorescence intensity measuring instrument. […]

[2] = test system: CLN2 cells (GM09668, GM09669, GM10570); experiment: Quantification of autofluorescence as % Fluorescent Area by image analysis (HALO); type: cell-based, human; settings: for % Fluorescent Area: 10 days culture
Procedure: as §1, §2
Each of the CLN2 cells and the NHDF cells cultured in Example 2-1 was washed twice with Dulbecco's Phosphate-Buffered Saline (DPBS, Gibco) and detached from the flask using 1 mL of 0.25% Trypsin-EDTA (Gibco). After 10 mL of MEM was added, each cell was collected in a 15 mL tube and centrifuged at room temperature at 1000 rpm for 5 minutes, and the supernatant was removed. Then, each cell was suspended at cell density of 2×10^5 cells/mL in one of soraprazan-containing media (0, 0.1, 1, and 10 μM). Then the cell suspension was dispensed in 96-well plates (655956, Gliner) with 0.4×10^5 cells per well (200 μL per well). Cells were cultured at 37° C., in the presence of 5% CO2 for 10 days. During the culture, the medium in each well was exchanged to new corresponding soraprazan-containing medium at 3, 6, and 9 days after seeding.
The observation of autofluorescence was performed after changing the medium to FluoroBrite DMEM (A1896701, Gibco) under GFP detection conditions (BZX filter GFP, excitation wavelength:470/40 nm, absorption wavelength:525/50 nm, dichroic mirror: 495 nm).
To quantify the fluorescence intensity of autofluorescence, the same tests as in Examples 2-1 to 2-4 were performed on 3 types of CLN2 cells (GM09668, GM09669, GM10570) using soraprazan-containing medium, which contained 0, 1, and 10 μM of soraprazan, respectively. It was confirmed again that the fluorescent intensity was reduced in cells cultured in soraprazan-containing medium particularly at a concentration of 10 μM. Then, the ratio of the area where fluorescent was detected in the image (fluorescent area) to the total area of the image occupied by the cells (% Fluorescent Area) was calculated using the image analysis software HALO® (v3.2.1851.354, Indica Labs). As the analysis algorithms, Indica Labs-Area Quantification FL v2 1.6 was used. Herein the area where fluorescent was detected, irrespective of the fluorescent intensity, was defined as fluorescent area, which corresponds the area where a certain amount of lipofuscin existed.

COCCO[C@@H]1c2ccn3c(C)c(C)nc3c2N[C@H](c2ccccc2)[C@H]1O [Soraprazan, soraprazan]
fluorescent intensity (autofluorescence, lipofuscin accumulation) (CLN2 cells): markedly reduced
amount of lipofuscin accumulated in the cells (fluorescence intensity) [1]: decreases according to the concentration of soraprazan
amount of lipofuscin accumulated in each of the tissues (fluorescence intensity) (TPP1 knockout (KO) mice): reduces the amount of lipofuscin
fluorescent intensity (autofluorescence) ([2]; 3 types of CLN2 cells, 1 and 10 μM soraprazan, particularly at 10 μM, FIGS. 9-11): reduced
% Fluorescent Area ([2]; GM09668 cells, 1 μM soraprazan): 0.944%
% Fluorescent Area ([2]; GM09668 cells, 10 μM soraprazan): 2.07%
% Fluorescent Area ([2]; GM09669 cells, 1 μM soraprazan): 10.9%
% Fluorescent Area ([2]; GM09669 cells, 10 μM soraprazan): 2.34%
% Fluorescent Area ([2]; GM10570 cells, 1 μM soraprazan): 12.3%
% Fluorescent Area ([2]; GM10570 cells, 10 μM soraprazan): 0.766%
